The values below come from patent US10301288B2, “Kinase inhibitors” (Topivert Pharma Limited, priority 2013, dated 2019).

Series [1] relates to PBMCs. Put plainly: (b) LPS-induced TNFα/IL-8 release in PBMC cells. The format is cell-based. Conditions: Homo sapiens, read-out: IC50 for Inhibition of Cytokine Release, IL-8. As to the method: Peripheral blood mononuclear cells (PBMCs) from healthy subjects are separated from whole blood using a density gradient (Lymphoprep, Axis-Shield Healthcare). The PBMCs are seeded in 96 well plates and treated with compounds at the desired concentration for 2 hours before addition of 1 ng/ml LPS (Escherichia Coli 0111:B4 from Sigma Aldrich) for 24 hours under normal tissue culture conditions (37° C., 5% CO2). The supernatant is harvested for determination of IL-8 and TNFα concentrations by sandwich ELISA (Duo-set, R&D systems) and read on the fluorescence microplate reader (Varioskan® Flash, ThermoFisher Scientific).

In another series the test system is β-catenin. Put plainly: (m) Accumulation of β catenin in d-U937 cells. The following applies: Reference Compound at 1 μg/mL defined as 100%. The class given is cell-based, human. How it is done:
U937 cells, a human monocytic cell line, are differentiated into macrophage-type cells by incubation with PMA; (100 ng/mL) for between 48 to 72 hr. The cells are then incubated with either final concentrations of test compound or vehicle for 18 hr. The induction of β-catenin by the test compounds is stopped by replacing the media with 4% formaldehyde solution. Endogenous peroxide activity is neutralised by incubating with quenching buffer (100 μL, 0.1% sodium azide, 1% H2O2 in PBS with 0.05% Tween-20) for 20 min. The cells are washed with washing buffer (200 μL; PBS containing 0.05% Tween-20) and incubated with blocking solution (200 μL; 5% milk in PBS) for 1 hr, re-washed with washing buffer (200 μL) and then incubated overnight with anti-β-catenin antibody solution (50 μL) in 1% BSA/PBS (BD, Oxford, UK).
After washing with washing buffer (3×200 μL; PBS containing 0.05% Tween-20), cells are incubated with an HRP-conjugated secondary antibody solution (100 μL) in 1% BSA/PBS (Dako, Cambridge, UK) and the resultant signal is determined colourimetrically (OD: 450 nm with a reference wavelength of 655 nm) using TMB substrate (50 μL; R&D Systems, Abingdon, UK). This reaction is stopped by addition of 1N H2SO4 solution (50 μL). Cells are then washed with washing buffer and 2% crystal violet solution (50 μL) is applied for 30 min. After washing with washing buffer (3×200 μL), 1% SDS (100 μL) is added to each well and the plates are shaken lightly for 1 hr prior to measuring the absorbance at 595 nm (Varioskan® Flash, Thermo-Fisher Scientific).
The measured OD450-655 readings are corrected for cell number by dividing the OD450-655 by the OD595 readings.

In a further series the target is c-Src (Homo sapiens (Human), UniProt P12931). Put plainly: c-Src enzyme inhibition (FRET). The format is biochemical. How it is done:
(§1) The enzyme inhibitory activities of compounds disclosed herein are determined by FRET using synthetic peptides labelled with both donor and acceptor fluorophores (Z-LYTE, Invitrogen Ltd., Paisley, UK).
(§2) The inhibitory activities of compounds of the invention against c-Src and Syk enzymes (Invitrogen), are evaluated in a similar fashion to that described hereinabove. The relevant enzyme (3000 ng/mL or 2000 ng/mL respectively, 2.5 μL) is incubated with the test compound (either 4 μg/mL, 0.4 μg/mL, 0.04 μg/mL, or 0.004 μg/mL, 2.5 μL each) for 2 hr at RT. The FRET peptides (8 μM. 2.5 μL), and appropriate ATP solutions (2.5 μL, 800 μM for c-Src, and 60 μM ATP for Syk) are then added to the enzymes/compound mixtures and incubated for 1 hr. Development reagent (protease, 5 μL) is added for 1 hr prior to detection in a fluorescence microplate reader (Varioskan® Flash, ThermoFisher Scientific).
(§3) In all cases, the site-specific protease cleaves non-phosphorylated peptide only and eliminates the FRET signal. Phosphorylation levels of each reaction are calculated using the ratio of coumarin emission (donor) over fluorescein emission (acceptor), for which high ratios indicate high phosphorylation and low ratios indicate low phosphorylation levels.

In another series the target is GSK3α (Homo sapiens (Human), UniProt P49840). Put plainly: GSK 3α enzyme inhibition (FRET, Method 2). The format is biochemical. How it is done:
as §1
The inhibitory activities of compounds of the invention against the GSK 3α enzyme isoform (Invitrogen), are evaluated by determining the level of activation/phosphorylation of the target peptide. The GSK3-α protein (500 ng/mL, 2.5 μL) is mixed with the test compound (2.5 μL at either 4 μg/mL, 0.4 μg/mL, 0.04 μg/mL, or 0.004 μg/mL) for 2 hr at RT. The FRET peptide (8 μM, 2.5 μL), which is a phosphorylation target for GSK3α, and ATP (40 μM, 2.5 μL) are then added to the enzyme/compound mixture and the resulting mixture incubated for 1 hr. Development reagent (protease, 5 μL) is added for 1 hr prior to detection in a fluorescence microplate reader (Varioskan® Flash, ThermoFisher Scientific).
as §3

Series [2] relates to PBMCs. Put plainly: (i) Cell mitosis assay in PBMCs. The class given is cell-based. The following applies: Homo sapiens, PBMC, 5 μg/mL. How it is done: PBMCs from healthy subjects are separated from whole blood (Quintiles, London, UK) using a density gradient (Histopaque®-1077, Sigma-Aldrich, Poole, UK). The PBMCs (3 million cells per sample) are subsequently treated with 2% PHA (Sigma-Aldrich, Poole, UK) for 48 hr, followed by a 20 hr exposure to varying concentrations of test compounds. At 2 hr before collection, PBMCs are treated with demecolcine (0.1 μg/mL; Invitrogen, Paisley, UK) to arrest cells in metaphase. […] Fluorescence is observed using an ATTUNE flow cytometer (Invitrogen, Paisley, UK), gating for lymphocytes.

In another series the target is p38 MAPKα (Homo sapiens (Human), UniProt Q16539). Put plainly: p38 MAPKα enzyme inhibition (FRET, Method 2). The format is biochemical. How it is done:
as §1
The inhibitory activities of test compounds against the p38 MAPKα isoform (MAPK14: Invitrogen), are evaluated indirectly by determining the level of activation/phosphorylation of the down-stream molecule, MAPKAP-K2. The p38 MAPKα protein (80 ng/mL, 2.5 μL) is mixed with the test compound (2.5 μL of either 4 μg/mL, 0.4 μg/mL, 0.04 μg/mL or 0.004 μg/mL) for 2 hr at RT. […] The mixture is incubated for 1 hr at RT. Development reagent (protease, 5 μL) is added for 1 hr prior to detection in a fluorescence microplate reader (Varioskan® Flash, ThermoFisher Scientific).
as §3

The next series has as its target Syk (Homo sapiens (Human), UniProt P43405). Put plainly: Syk enzyme inhibition (FRET). The format is biochemical. As to the method: as §1, §2, §3
The subject of series [3] is PBMCs. Put plainly: (c) IL-2 and IFN gamma release in CD3/CD28 stimulated PBMC cells. The class given is cell-based. Conditions: Homo sapiens. As to the method:
PBMCs from healthy subjects are separated from whole blood using a density gradient (Lymphoprep, Axis-Shield Healthcare). Cells are added to a 96 well plate pre-coated with a mixture of CD3/CD28 monoclonal antibodies (0.3 ug/ml eBioscience and 3 ug/ml BD Pharmingen respectively). Compound at the desired concentration is then added to the wells and the plate left for 3 days under normal tissue culture conditions. […] The IC50 is determined from the dose response curve.

The subject of a further series is HT29 cells. Put plainly: (d) IL-1β-induced IL-8 release in HT29 cells. The format is cell-based. The following applies: Homo sapiens, HT-29, read-out: IC50 for Inhibition of Cytokine Release, IL-8. How it is done:
HT29 cells, a human colon adenocarcinoma cell line, are plated in a 96 well plate (24 hrs) and pre-treated with compounds at the desired concentration for 2 hours before addition of 5 ng/ml of IL-1β (Abeam) for 24 hours. Supernatants are harvested for IL-8 quantification by Sandwich ELISA (Duo-set, R&D System). The IC50 is determined from the dose response curve.

A short description of series [4]: Hydrolytic stability study in DMSO and water (3:1). The format is physicochemical. The following applies: 1 mg/mL. As to the method: General HPLC Procedure • Agilent, Waters X-Select C18, 2.5 μm, 4.6×30 mm column, 4 min method, 5-95% MeCN/water (0.1% formic acid). • Flow rate 2.5 ml/min • Column Oven Temperature 40° C. • Detection 254 nm.
Sample Preparation • A 1.0 mg sample of test compound was dissolved in 750 μL of DMSO. Water (250 μL) was added slowly, ensuring no precipitation occurred.
Recording Stability • A 50 μL aliquot of the test solution was removed and analysed in duplicate by 5 μL HPLC injections. The peak area for the test compound was recorded following manual integration of the corresponding UV trace. • The test solution was heated to 60° C., with stirring, and 50 μL aliquots removed for HPLC analysis at 5 and 24 h timepoints.

Where [5] appears, read: read-out: IC50 for Inhibition of Cytokine Release, IFNγ.
Setting [6] is: read-out: IC50 for Inhibition of Cytokine Release, IL-2.

c-Src, sequence (P12931 whole entry, looked up): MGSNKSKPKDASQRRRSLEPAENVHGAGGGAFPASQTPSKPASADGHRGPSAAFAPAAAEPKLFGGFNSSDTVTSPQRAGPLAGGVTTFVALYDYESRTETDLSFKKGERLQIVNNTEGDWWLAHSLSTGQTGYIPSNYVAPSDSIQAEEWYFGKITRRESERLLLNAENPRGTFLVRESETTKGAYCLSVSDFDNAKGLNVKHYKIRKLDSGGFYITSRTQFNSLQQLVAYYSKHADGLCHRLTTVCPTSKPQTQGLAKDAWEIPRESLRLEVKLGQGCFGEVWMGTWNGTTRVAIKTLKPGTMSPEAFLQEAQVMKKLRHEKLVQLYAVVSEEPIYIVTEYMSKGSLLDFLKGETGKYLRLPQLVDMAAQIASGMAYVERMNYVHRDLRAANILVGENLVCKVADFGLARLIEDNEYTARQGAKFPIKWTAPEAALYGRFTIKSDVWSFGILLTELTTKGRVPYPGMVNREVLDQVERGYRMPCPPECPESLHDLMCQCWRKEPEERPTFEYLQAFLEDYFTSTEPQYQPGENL
p38 MAPKα, sequence (Q16539 whole entry): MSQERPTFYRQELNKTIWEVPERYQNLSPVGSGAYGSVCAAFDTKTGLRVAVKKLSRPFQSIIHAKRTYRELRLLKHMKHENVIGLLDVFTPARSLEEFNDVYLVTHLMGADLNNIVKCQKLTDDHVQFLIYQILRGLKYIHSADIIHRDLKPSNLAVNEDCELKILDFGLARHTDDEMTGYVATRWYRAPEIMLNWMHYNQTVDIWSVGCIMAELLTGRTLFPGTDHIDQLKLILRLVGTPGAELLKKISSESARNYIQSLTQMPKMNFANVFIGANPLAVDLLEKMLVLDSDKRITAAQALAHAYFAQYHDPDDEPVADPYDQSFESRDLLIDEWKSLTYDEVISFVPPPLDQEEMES
GSK3α, sequence (P49840 whole entry): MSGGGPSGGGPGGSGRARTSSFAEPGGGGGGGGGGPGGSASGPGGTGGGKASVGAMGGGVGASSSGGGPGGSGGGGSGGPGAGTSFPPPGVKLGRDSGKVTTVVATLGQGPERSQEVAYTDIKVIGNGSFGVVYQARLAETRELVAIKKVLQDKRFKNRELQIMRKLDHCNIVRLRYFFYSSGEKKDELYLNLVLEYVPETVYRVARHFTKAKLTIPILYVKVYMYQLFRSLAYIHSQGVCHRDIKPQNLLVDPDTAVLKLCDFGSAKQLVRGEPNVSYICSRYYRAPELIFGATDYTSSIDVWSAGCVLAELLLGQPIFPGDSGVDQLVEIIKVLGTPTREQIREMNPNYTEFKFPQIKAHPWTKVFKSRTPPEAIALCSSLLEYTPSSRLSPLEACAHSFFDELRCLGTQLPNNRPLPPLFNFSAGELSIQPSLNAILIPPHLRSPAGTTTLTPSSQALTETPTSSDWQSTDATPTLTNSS

Turning to `COCCOCCOCCNC(=O)c1cc(Nc2cc(Oc3ccc(NC(=O)Nc4cc(C(C)(C)C)nn4-c4ccc(C)cc4)c4ccccc34)ccn2)cc(OC)c1` [Example 4, 3-((4-((4-(3-(3-(tert-Butyl)-1-(p-tolyl)-1H-pyrazol-5-yl)ureido)naphthalen-1-yl)oxy)pyridin-2-yl)amino)-5-methoxy-N-(2-(2-(2-methoxyethoxy)ethoxy)ethyl)-benzamide], the half-inhibitory concentration (IC50) in the series with PBMCs [1] came out at 1.4 nM; on c-Src it was 19 nM; at GSK3α, 9550 nM; against p38 MAPKα, 50 nM; at Syk it was 46 nM; in the series on PBMCs [3] (setting [5]), 2.4 nM. For the same molecule, the concentration for half-maximal inhibition (IC50) with PBMCs [3] (setting [6]) is 37.4 nM; in the series with HT29 cells, 5.3 nM. Also, the “% β-catenin induction” value in the series with β-catenin (1 μg/mL) is recorded as 5%; in the series with β-catenin (5 μg/mL) it was 12%. The same molecule showed an inhibition at 5 µg/mL with PBMCs [2] of 38.8%.
`[2H]c1c([2H])c(C([2H])([2H])[2H])c([2H])c([2H])c1-n1nc(C(C)(C)C)cc1NC(=O)Nc1ccc(Oc2ccnc(Nc3cc(C#C)cc(C(=O)NCCOCCOCCOC)c3)n2)c2ccccc12` [Example 6, 3-((4-((4-(3-(3-(tert-Butyl)-1-(2,3,5,6-tetradeutero-4-(trideuteromethyl)-phenyl)-1H-pyrazol-5-yl)ureido)naphthalen-1-yl)oxy)pyrimidin-2-yl)amino)-5-ethynyl-N-(2-(2-(2-methoxyethoxy)ethoxy)ethyl)benzamide]: the IC50 amounted to 2.3 nM in the series on PBMCs [1]; 17 nM against c-Src; 96 nM against Syk; 2.9 nM in the series on PBMCs [3] (setting [5]); 123 nM in the series on PBMCs [3] (setting [6]); 2.4 nM in the series on HT29 cells. Moreover, the results for the “% β-catenin induction” value in the series on β-catenin (1 μg/mL), in the series on β-catenin (5 μg/mL) and in the series with β-catenin (10 μg/mL) were 3%, 3% and −1%, respectively. Besides, the inhibition at 5 µg/mL in the series with PBMCs [2] is 10.2%.
Take `C#Cc1cc(Nc2nccc(Oc3ccc(NC(=O)Nc4cc(C(C)(C)C)nn4-c4ccc(C)cc4)c4ccccc34)n2)cc(C(=O)NCCOCCOCCOCCOC)c1` [Example 7, 3-((4-((4-(3-(3-(tert-Butyl)-1-(p-tolyl)-1H-pyrazol-5-yl)ureido)naphthalen-1-yl)oxy)pyrimidin-2-yl)amino)-5-ethynyl-N-(2,5,8,11-tetraoxatridecan-13-yl)benzamide]: the IC50 worked out at 2.4 nM with PBMCs [1]; 18 nM against c-Src; 2020 nM against GSK3α; 88 nM at p38 MAPKα; 237 nM on Syk; 3.7 nM in the series on PBMCs [3] (setting [5]). The concentration for half-maximal inhibition (IC50) amounted to 91 nM with PBMCs [3] (setting [6]) and 1.6 nM in the series on HT29 cells. In addition, the “% β-catenin induction” value in the series with β-catenin (1 μg/mL) was 0%; with β-catenin (5 μg/mL) it was −2%; with β-catenin (10 μg/mL) it was −5%. The molecule further registered an inhibition at 5 µg/mL in the series on PBMCs [2] of 9.1%.
For `C#Cc1cc(Nc2nccc(Oc3ccc(NC(=O)Nc4cc(C(C)(C)C)nn4-c4ccc(C)cc4)c4ccccc34)n2)cc(C(=O)NCCOCCOC)c1` [Example 8, 3-((4-((4-(3-(3-(tert-Butyl)-1-(p-tolyl)-1H-pyrazol-5-yl)ureido)naphthalen-1-yl)oxy)pyrimidin-2-yl)amino)-5-ethynyl-N-(2-(2-methoxyethoxy)ethyl)benzamide], the half-inhibitory concentration (IC50) was found to be 1.6 nM with PBMCs [1]; 20 nM on c-Src; 2890 nM on GSK3α; 104 nM against p38 MAPKα; 120 nM against Syk; 8.5 nM in the series with PBMCs [3] (setting [5]). For the same molecule, the concentration for half-maximal inhibition (IC50) in the series on PBMCs [3] (setting [6]) is 55 nM; in the series on HT29 cells it was 3.2 nM. Moreover, the “% β-catenin induction” value in the series with β-catenin (1 μg/mL) is 6%; in the series on β-catenin (5 μg/mL), 3%; in the series on β-catenin (10 μg/mL), 2%. In the series with PBMCs [2], this molecule showed an inhibition at 5 µg/mL of 6.1%.
Turning to `C#Cc1cc(Nc2nccc(Oc3ccc(NC(=O)Nc4cc(C(C)C)nn4-c4ccc(C)cc4)c4ccccc34)n2)cc(C(=O)NCCN2CCOCC2)c1` [Reference Compound A, 3-ethynyl-5-((4-((4-(3-(3-isopropyl-1-(p-tolyl)-1H-pyrazol-5-yl)ureido)naphthalen-1-yl)oxy)pyrimidin-2-yl)amino)-N-(2-morpholinoethyl)benzamide, reference compound], the “% left” value in series [4] (0 min) is 100%; in series [4] (60° C., 300 min), 82%; in [4] (60° C., 1440 min), 36%.

Usually IC50 stands for the concentration at which inhibition is half-maximal. Broadly, the inhibition is the relative decrease from the control value, in per cent. Higher therefore signals a response far below the control.
